From article PMC6984391, “Anion carriers as potential treatments for cystic fibrosis: transport in cystic fibrosis cells, and additivity to channel-targeting drugs” (Chemical Science, 2019)

Key:
[1] = Affinity to Cl- in chloroform by extraction of Et4N+Cl- from water; assay type: binding; conditions: extraction of Et4N^+Cl^– from water into chloroform at 303 K; new compound or new data
Procedure: Measurement of affinities to Et4N+Cl- in chloroform through extraction from […]
This method is adapted from Clare et al..4 The Et4N+Cl- salt was obtained from Sigma Aldrich and dried under vacuum overnight prior to solution preparation using deionised water that had been passed through a Millipore filtration system. All host solutions were prepared using chloroform that had been deacidified by passage through a flash chromatography column containing basic alumina.
A solution of host in deacidified chloroform was combined with 10 mL of aqueous Et4N+Cl-guest solution in a sample tube (30 mL). Concentrations and volumes are specified in Table
S1. A magnetic stirring bar (2 cm) was added to the tube and the lower half was immersed in a water bath heated to 303 K, while the contents were stirred vigorously to achieve good mixing of the two phases. After 30 minutes, stirring was stopped and the two phases were allowed to separate. The majority of the aqueous phase was then removed using a pipette and the remaining organic phase was centrifuged for 10 minutes at 4000 rpm. The chloroform solution was then filtered through Whatman 1PS hydrophobic filter paper to remove any remaining aqueous phase. Solvent from the filtrate was then removed in vacuo and the solid was further dried under vacuum. The resulting solids from the extraction experiments were dissolved in acetone-d6 and the solutions were analysed with 1H NMR spectroscopy.
A value for the molar ratio (R) was determined by integrating the signal at δ = 3.5 ppm (CH2 of Et4N+Cl-) against one of the receptor signals.
The values for R obtained from the 1H NMR spectra were used to calculate values for the equilibrium extraction constants Ke:
Horg + Xaq− + Yaq+ ⇌HX−Yorg+ Ke = org […]
To convert the extraction constants Ke into association constants Ka it is necessary to obtain the distribution constants Kd for the substrates between aqueous and organic phases:
The Kd value for tetraethylammonium chloride partitioning between water and chloroform has been determined and reported previously to be 1.269 × 10-5 M-1.5
The binding constant Ka is then calculated from Ke and Kd:
H + X−Y+ ⇌ HX−Y+ K = org = e […]
When [G] > 100 mM, the amount of salt that migrates from the aqueous phase into the organic phase without assistance of the host has to be taken into account by correcting the measured […]
Table S1. Overview of the conditions and results from the extraction experiments Receptor [H] (mM) [G] (mM) Vorg (mL) Vaq (mL) Rmeasured Ka (M-1)

YFP-CFBE cells = test: YFP fluorescence plate reader assay of anion transport in YFP-CFBE cells; assay type: cell-based; conditions: for anion transport in YFP-CFBE cells (in words) / concentration–response relationship in YFP-CFBE compared with YFP-FRT cells: 1–50 μM; for anionophore concentration matching the effect of UTP (1 mM): anion transport equivalent to CaCC activation, YFP-CFBE cells; for effect of CaCC activation on anionophore-mediated anion transport: anionophore 50 μM with UTP 1 mM; for effect of CaCCinh-A01 on transport by anionophore: anionophore 50 μM, CaCCinh-A01 10 μM
Excerpt: To begin to test anionophores in CF airway epithelial cells, we utilised the CF bronchial epithelial cell line CFBE41o^– engineered to express YFP-H148Q/I152L (YFP-CFBE cells).[34],[35] One advantage of using YFP-CFBE cells is that they endogenously express the Ca^2+-activated Cl^– channel (CaCC), unlike YFP-FRT cells.[33] Thus, using YFP-CFBE cells, we directly compared anion transport by anionophores with that of the CaCC, an alternative pathway to restore anion transport in CF.[13]
FRT cells stably expressing the halide sensor YFP-H148Q/I152L6 were generous gifts of AS Verkman (University of California, San Francisco), while CFBE41o- cells7 stably expressing YFP (YFP-CFBE cells) were a generous gift of LJV Galietta (Telethon Institute for Genetics and Medicine). YFP-FRT cells were cultured as described previously for FRT cells8 except that media contained 10% fetal bovine serum, 2 mM L-glutamine and the selection agent G418 (YFP-FRT cells, 0.5 mg ml-1; WT-CFTR-YFP-FRT cells, 0.75 mg ml-1) or zeocin (F508del-CFTR-YFP-FRT cells, 0.5 mg ml-1). YFP-CFBE cells were cultured in minimal essential medium (MEM) supplemented with 10% fetal bovine serum, 2 mM L-glutamine, 100 U ml-1 penicillin and […] streptomycin. All cells were incubated at 37 °C in a humidified atmosphere with 5% CO2.
For fluorescence microplate reader studies, cells were seeded in 96-well plates and grown in culture media at 37 °C in a humidified atmosphere with 5% CO2 for 3 – 4 days until […]
90% confluent. […]
Fluorescence plate reader assay […]
quenching of YFP fluorescence at 37 °C using a microplate reader following the method of Galietta et al..9 The microplate reader (model: FLUORstar Omega; BMG LABTECH Ltd., Aylesbury, UK) was equipped with a syringe pump and excitation (500 ± 10 nm) and emission (535 ± 15 nm) filters (Chroma Technology GmbH, Olching, Germany). After washing cells twice with PBS (composition (mM): 137 NaCl, 2.7 KCl, 8.1 Na2HPO4, 1.5 KH2PO4, 1 CaCl2 and 0.5 MgCl2, pH 7.40), cells were incubated with test anionophores (1 – 50 µM) or the vehicle (DMSO [0.1 – 0.5% v v-1]) in 40 µl of PBS for 10 – 120 minutes according to the experimental design. Other compounds, including forskolin, ivacaftor and channel inhibitors were added to […]
the PBS bathing cells 10 minutes prior to PBS iodide addition, whereas UTP was added to cells with the PBS iodide solution. Fluorescence was measured for 14 seconds; 2 seconds before and 12 seconds after injection of 110 µl PBS iodide solution (137 mM Cl- replaced by I-) into each well (to obtain a final concentration of I- of 100 mM).
We expressed cell fluorescence values (F) relative to the fluorescence value immediately before I- injection (F0), excluding the initial decrease, which likely represents the quenching of extracellular YFP released from cells and signal reduction accompanying the increase in solution volume bathing cells. To quantify anion transport by test anionophores, we determined the initial slope of the fluorescence decay following I - addition by fitting first order exponential functions to the last 12 seconds of each fluorescence recording. In each experim ent, n values represent the mean of two replicates and all treatments were tested at least three times using different microplates. […]
FRT cells was selected and the cells were perfused with (i) PBS for 5 minutes then (ii) PBS containing I- (10 mM) (made by preparing PBS with 127 mM NaCl to maintain osmolarity) for 5 minutes and finally (iii) PBS for 30 minutes to remove thoroughly I- from the perfusion chamber. YFP-FRT cells were repeatedly treated with I- (10 mM) and then washed with PBS […]
During all interventions, the rate of solution perfusion was 8 – 10 ml min-1; temperature was 37 °C and except for the first 15 minutes of PBS washing, no data were collected between cycles of I- perfusion and PBS […]
For cell fluorescence measurements, we used the Volocity (Improvision) data acquisition and analysis system and a cooled CCD camera (Hamamatsu ORCA ER firewall) […]

| SMILES | K a to Cl^– in CHCl3 [1] | effect of increasing incubation period from 10 to 120 minutes on anion transport (YFP-CFBE cells; 10 μM) | effect of increasing incubation period from 10 to 120 minutes on anion transport (YFP-CFBE cells; 50 μM) | anion transport in YFP-CFBE cells (in words) (YFP-CFBE cells) | concentration–response relationship in YFP-CFBE compared with YFP-FRT cells (YFP-CFBE cells) | anionophore concentration matching the effect of UTP (1 mM) (YFP-CFBE cells) | effect of CaCC activation on anionophore-mediated anion transport (YFP-CFBE cells) | effect of CaCCinh-A01 on transport by anionophore (YFP-CFBE cells) |
| --- | --- | --- | --- | --- | --- | --- | --- | --- |
| COCCOCCOC(=O)[C@]12CC[C@@H](NC(=O)Nc3ccc(C(F)(F)F)cc3)C[C@@H]1C[C@@H](NC(=O)Nc1ccc(C(F)(F)F)cc1)CC2 [Compound 9] | 1.4 × 10^8 M^–1 |  |  |  |  |  |  |  |
| CCOC(=O)[C@]12CC[C@@H](NC(=S)Nc3ccc([N+](=O)[O-])cc3)C[C@@H]1C[C@@H](NC(=S)Nc1ccc([N+](=O)[O-])cc1)CC2 [Compound 12] |  | increased noticeably | dramatic acceleration | mediated anion transport | identical | 1 µM | either without effect or weakly additive | not observed |
| FC(F)(F)c1ccc(NC(=S)NCCN(CCNC(=S)Nc2ccc(C(F)(F)F)cc2)CCNC(=S)Nc2ccc(C(F)(F)F)cc2)cc1 [Compound 18] | 1.5 × 10^7 ^b M^–1 |  |  |  |  |  |  |  |
| CCCCCCCCOC(=O)[C@]12CC[C@@H](NC(=S)Nc3ccc([N+](=O)[O-])cc3)C[C@@H]1C[C@@H](NC(=S)Nc1ccc([N+](=O)[O-])cc1)CC2 [Compound 13] | 1.5 × 10^9 M^–1 |  |  |  |  |  |  |  |
| COCCOCCOC(=O)[C@]12CC[C@@H](NC(=O)Nc3cc(C(F)(F)F)cc(C(F)(F)F)c3)C[C@@H]1C[C@@H](NC(=O)Nc1cc(C(F)(F)F)cc(C(F)(F)F)c1)CC2 [Compound 10] | 2.5 × 10^8 M^–1 |  |  |  |  |  |  |  |
| FC(F)(F)c1cc(NC(=S)NCCN(CCNC(=S)Nc2cc(C(F)(F)F)cc(C(F)(F)F)c2)CCNC(=S)Nc2cc(C(F)(F)F)cc(C(F)(F)F)c2)cc(C(F)(F)F)c1 [Compound 19] | 1.5 × 10^9 ^b M^–1 | increased noticeably | increased noticeably | mediated anion transport | similar | 1 µM | strongly additive | direct inhibitory effect |
| CCOC(=O)[C@]12CC[C@@H](NC(=S)Nc3cc(C(F)(F)F)cc(C(F)(F)F)c3)C[C@@H]1C[C@@H](NC(=S)Nc1cc(C(F)(F)F)cc(C(F)(F)F)c1)CC2 [Compound 15] |  |  |  | mediated anion transport | less efficacious | 1 µM | either without effect or weakly additive | not observed |
